pEC50: −log10 of the molar value.
Biological target: T1, Cystic fibrosis transmembrane conductance regulator (CFTR) (Homo sapiens, UniProt P13569)
T1 construct: human WT-CFTR
Experiment: apical membrane current in FRT cells expressing human WT-CFTR; whole-cell patch clamp in CHO-K1 cells; no change in cAMP
Type: cell-based

T1 sequence (P13569 whole entry): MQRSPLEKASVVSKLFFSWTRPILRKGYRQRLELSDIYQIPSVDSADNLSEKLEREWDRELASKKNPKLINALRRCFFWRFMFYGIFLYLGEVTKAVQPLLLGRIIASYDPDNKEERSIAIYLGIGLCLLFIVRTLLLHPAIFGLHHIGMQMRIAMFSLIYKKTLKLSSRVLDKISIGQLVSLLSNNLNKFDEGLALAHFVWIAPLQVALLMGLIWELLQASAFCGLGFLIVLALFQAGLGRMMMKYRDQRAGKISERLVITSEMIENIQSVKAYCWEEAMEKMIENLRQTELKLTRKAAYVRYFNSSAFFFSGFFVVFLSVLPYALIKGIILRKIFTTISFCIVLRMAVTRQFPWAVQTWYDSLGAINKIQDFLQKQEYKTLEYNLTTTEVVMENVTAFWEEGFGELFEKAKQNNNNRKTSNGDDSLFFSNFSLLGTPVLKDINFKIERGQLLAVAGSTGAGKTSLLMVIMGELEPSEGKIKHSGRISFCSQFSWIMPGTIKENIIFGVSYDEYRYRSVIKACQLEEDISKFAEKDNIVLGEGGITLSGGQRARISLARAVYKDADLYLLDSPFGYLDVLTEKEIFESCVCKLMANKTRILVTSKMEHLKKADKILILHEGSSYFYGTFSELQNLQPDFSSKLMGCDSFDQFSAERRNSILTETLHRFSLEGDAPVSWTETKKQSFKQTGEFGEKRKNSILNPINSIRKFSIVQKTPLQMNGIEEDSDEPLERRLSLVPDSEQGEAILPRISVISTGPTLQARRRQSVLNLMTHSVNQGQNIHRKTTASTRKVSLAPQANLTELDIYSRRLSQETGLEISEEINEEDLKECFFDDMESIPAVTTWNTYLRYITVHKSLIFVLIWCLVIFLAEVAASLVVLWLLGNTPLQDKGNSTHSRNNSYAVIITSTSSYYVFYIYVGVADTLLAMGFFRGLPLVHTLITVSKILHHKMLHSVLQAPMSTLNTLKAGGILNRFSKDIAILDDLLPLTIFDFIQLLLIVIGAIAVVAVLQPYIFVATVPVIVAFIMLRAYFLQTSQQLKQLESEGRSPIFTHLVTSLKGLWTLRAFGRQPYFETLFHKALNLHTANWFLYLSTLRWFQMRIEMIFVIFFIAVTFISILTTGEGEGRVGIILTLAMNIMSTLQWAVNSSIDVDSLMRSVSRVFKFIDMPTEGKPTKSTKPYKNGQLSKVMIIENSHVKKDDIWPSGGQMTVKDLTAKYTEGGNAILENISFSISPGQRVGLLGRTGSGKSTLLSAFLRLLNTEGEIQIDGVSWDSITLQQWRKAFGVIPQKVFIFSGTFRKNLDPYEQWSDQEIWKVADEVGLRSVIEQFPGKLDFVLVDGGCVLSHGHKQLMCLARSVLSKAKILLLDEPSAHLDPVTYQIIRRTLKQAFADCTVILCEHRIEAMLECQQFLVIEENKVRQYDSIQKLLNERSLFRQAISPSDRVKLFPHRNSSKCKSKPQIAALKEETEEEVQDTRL

## CCOc1ccc(NC(=O)c2cc3nccc(-c4ccc(OC)c(OC)c4)n3n2)cc1 [Cact-3, 7-(3,4-dimethoxyphenyl)-N-(4-ethoxyphenyl)pyrazolo [1,5-α]pyrimidine-2-carboxamide]
  pEC50: 6.59

— PMC9101838, “Novel CFTR Activator Cact-3 Ameliorates Ocular Surface Dysfunctions in Scopolamine-Induced Dry Eye Mice” (International Journal of Molecular Sciences, 2022)
